Read-outs that look alike come from different tables or passages of the source.
Columns and labels:
[1] = test system: primary cortical astrocytes (native Kir4.1 channels); assay: Patch clamp of primary cultured WT astrocytes (native Kir4.1); type: cell-based, mouse; conditions: JX3212 3 µM; BaCl2 100 µM
Protocol: Astrocytes were isolated and cultured as previously described.^[ [16] ^] Briefly, the cortices from P1‐P4 mouse pups were dissected and incubated for 25 min in Hank's Balanced Salt Solution (22.5 ml) with 2.5% trypsin (2.5 ml) at 37 °C. Cells were dissociated in cultured medium (DMEM/F12 supplemented with 10% fetal bovine serum and 1% penicillin and streptomycin) and filtered with a 70‐µm cell strainer. Cell suspensions were cultured in PDL‐pretreated 75‐cm^2 flasks for the initial seven days, with half of the medium replaced every 2 days. Subsequently, the cultures were shaken at 220 rpm for 6 h at 37 °C to remove microglia and oligodendrocytes from the astrocyte layers. The astrocytes were harvested, reseeded in two new flasks, and cultured in an incubator for 14 days. For Kir4.1 deletion in cell cultures, 4‐OH tamoxifen (final concentration: 1 µM, Felixbio) was added into Kir4.1^flox/flox: Aldh1l1‐Cre/ERT2 cortical cultures at DIV 2 and DIV 4, respectively, and completely removed at DIV7 when astrocytes were reseeded in fresh culture medium.
(§1) Whole‐cell patch‐clamp recordings were obtained either in transiently transfected CHO‐K1 cells or in primary cultured astrocytes at room temperature using standard patch‐clamp techniques with an Axopatch‐700B amplifier (Axon Instruments). The signals were filtered at 2 kHz and sampled at 20 kHz using the Digidata 1440A interface (Axon Instruments). The resistance of borosilicate glass pipettes was typically 2–4 MΩ when filled with the internal solution. Drug application was facilitated using a BPS perfusion system (ALA Scientific Instruments). Macroscopic currents generated by expressed potassium channels were recorded under the voltage‐clamp conditions with an internal pipette solution composed of (in mM): 140 KCl, 5 NaCl, 1 CaCl2, 1 MgCl2, 10 HEPES, and 10 EGTA, pH 7.2 adjusted with KOH. The external solution contained (in mM): 140 NaCl, 5 KCl, 2 CaCl2, 1 MgCl2, 10 glucose, and 10 HEPES, pH 7.4 adjusted with NaOH. Currents were elicited with a hyperpolarized voltage at −120 mV from the holding potential of −80 mV, followed by a ramp voltage depolarizing to +50 mV. Astrocytic resting membrane potentials were recorded under current‐clamp conditions (I = 0 pA) using standard internal and external solutions, determined immediately after achieving whole‐cell mode.

Kir4.1 = target: T1, Kir4.1 (Homo sapiens, UniProt P78508); assay: Whole-cell patch clamp, Kir4.1 currents in transfected CHO-K1 cells; type: cell-based; conditions: for inhibition at 1 µM: CHO-K1, 1 μM; for inhibition at 10 µM: CHO-K1, 10 μM
T1 construct: host or cells: CHO-K1
T1 sequence (P78508 1-379): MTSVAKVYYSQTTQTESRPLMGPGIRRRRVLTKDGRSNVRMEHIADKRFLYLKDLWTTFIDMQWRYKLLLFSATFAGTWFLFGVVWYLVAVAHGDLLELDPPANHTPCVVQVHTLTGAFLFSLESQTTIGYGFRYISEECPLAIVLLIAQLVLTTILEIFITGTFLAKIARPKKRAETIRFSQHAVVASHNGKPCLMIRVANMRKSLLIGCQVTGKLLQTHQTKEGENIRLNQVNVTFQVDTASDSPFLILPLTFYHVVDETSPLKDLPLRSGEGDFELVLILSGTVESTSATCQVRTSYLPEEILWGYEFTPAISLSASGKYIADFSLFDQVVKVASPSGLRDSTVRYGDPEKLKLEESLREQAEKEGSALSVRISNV
Protocol: Plasmids encoding WT human potassium channels Kir1.1, Kir2.1, Kir2.2, Kir4.1, and Kir4.2 were obtained from the Beijing Genomics Institute. All point mutations were constructed using the QuickChange II Site‐Directed Mutagenesis Kit (Stratagene) and subsequently verified by sequencing.
CHO‐K1 cells were maintained in DMEM/F12 growth medium containing 10% fetal bovine serum. Plasmids encoding the target genes (3600 ng) and enhanced green fluorescent protein (400 ng) were cotransfected into cells using Lipofectamine 2000 (Invitrogen) in accordance with the manufacturer's instructions. Cells were seeded onto poly‐d‐lysine (PDL)‐coated glass coverslips 1 h prior to electrophysiological recordings. All cells were cultured under standard conditions of 5% CO2 at 37 °C.
as §1

[2] = test system: MDA-MB-468 breast cancer cells; assay: Cytotoxicity test (CCK-8); type: cell-based; conditions: read-out: IC50 ± SD (μM) for MDA-MB-468 Inhibition
Protocol: Cytotoxicity of all the tested compounds was determined using the cell counting kit‐8 (CCK‐8) assay kit (Beyotime, Shanghai, China). Briefly, MDA‐MB‐468 was cultured in L15 medium and plated in 96‐well plates at a density of 12,000 cells per well for 24 h at 37 °C in a 5% CO2 incubator. The tested compounds were dissolved in DMSO and diluted with culture medium (DMSO final concentration < 0.4%). Then the cells were treated with compounds (0.41, 1.23, 3.70, 11.11, 33.33, 100.00 µM) for 48 h. After treatments, removal of the supernatant liquor, 100 µL of new media diluted CCK‐8 solution (10% CCK‐8) was added into each well and incubated at 37 °C for 2 h. The absorbance of the mixture was directly measured at 450 nm. The results are presented as a percentage of the control.

[3] = +50 mV, read-out: Kir4.1 Inhibition ± SD (%) at 1 μM, +50 mV
[4] = -120 mV, read-out: Kir4.1 Inhibition ± SD (%) at 1 μM, -120 mV
[5] = +50 mV, read-out: Kir4.1 Inhibition ± SD (%) at 10 μM, +50 mV
[6] = -120 mV, read-out: Kir4.1 Inhibition ± SD (%) at 10 μM, -120 mV
[7] = Homo sapiens, MDA-MB-468, MDA-MB-468 breast cancer cells

Compound	inhibition at 1 µM (Kir4.1; [3])	inhibition at 1 µM (Kir4.1; [4])	inhibition at 10 µM (Kir4.1; [5])	inhibition at 10 µM (Kir4.1; [6])	Kir4.1 Inhibition ± SD (%) at 10 μM, +50 mV (Kir4.1; +50 mV, 10 µM)	Kir4.1 Inhibition ± SD (%) at 10 μM, -120 mV (Kir4.1; -120 mV)	Kir4.1 Inhibition ± SD (%) at 1 μM, +50 mV (Kir4.1; 1 μM, +50 mV)	Kir4.1 Inhibition ± SD (%) at 1 μM, -120 mV (Kir4.1; 1 μM, -120 mV)	Kir4.1 Inhibition ± SD (%) at 10 μM, +50 mV (Kir4.1; +50 mV)	astrocytic resting membrane potential (in words) [1]	IC50 [2, 7]	IC50 ([2]; MDA-MB-468 breast cancer cells)
[Ba+2].[Cl-].[Cl-] [BaCl2, reference compound]	–	–	–	–	–	–	–	–	–	marked depolarization	–	–
c1ccc2c(c1)oc1ccc(N3CCC4(CCN(CCCN5CCOCC5)CC4)CC3)cc12 [JX3230, 4-(3-(9-(dibenzo[b,d]furan-2-yl)-3,9-diazaspiro[5.5]undecan-3-yl)propyl)morpholine]	–	–	63.3 ± 6.48%	15.6 ± 0.73%	–	–	–	–	–	–	> 50 µM	–
c1ccc2c3c([nH]c2c1)CCC(Nc1ccnc(NCCCN2CCOCC2)n1)C3 (centres unmarked) [JX3213, N^2-(3-morpholinopropyl)-N^4-(2,3,4,9-tetrahydro-1H-carbazol-3-yl)pyrimidine-2,4-diamine]	55 ± 3.87%	41.2 ± 4.03%	79.1 ± 3.7%	65.1 ± 4.67%	–	–	–	–	–	–	17.7 ± 3.05 µM	–
C1=Nc2ccccc2Oc2ccc(Nc3ccnc(NCCCN4CCOCC4)n3)cc21 [JX3214, N^4-(dibenzo[b,f][1,4]oxazepin-2-yl)-N^2-(3-morpholinopropyl)pyrimidine-2,4-diamine]	60.4 ± 6.32%	56.6 ± 3.9%	93.6 ± 4.14%	94.52 ± 0.7%	–	–	–	–	–	–	4.64 ± 0.41 µM	–
c1ccc2c(c1)oc1ccc(Nc3cncc(NCCCN4CCOCC4)n3)cc12 [JX3223, N^2-(dibenzo[b,d]furan-2-yl)-N^6-(3-morpholinopropyl)pyrazine-2,6-diamine]	–	–	–	–	7.01 ± 4.11%	6.62 ± 0.29%	–	–	–	–	23 ± 3.41 µM	–
OC(CNc1nccc(Nc2ccc3oc4ccccc4c3c2)n1)CN1CCOCC1 (centres unmarked) [JX3234, 1-((4-(dibenzo[b,d]furan-2-ylamino)pyrimidin-2-yl)amino)-3-morpholinopropan-2-ol]	11.2 ± 5.26%	5.91 ± 6.31%	94.83 ± 0.75%	88.4 ± 2.42%	–	–	–	–	–	–	17.1 ± 0.83 µM	–
c1ccc2c(c1)oc1ccc(Nc3cnc(NCCCN4CCOCC4)cn3)cc12 [JX3225, N^2-(dibenzo[b,d]furan-2-yl)-N^5-(3-morpholinopropyl)pyrazine-2,5-diamine]	3.73 ± 5.09%	8.36 ± 3.94%	96.9 ± 1.28%	94.3 ± 2.6%	–	–	–	–	–	–	31.6 ± 5.27 µM	–
CN(CCCN1CCOCC1)c1nccc(Nc2ccc3oc4ccccc4c3c2)n1 [JX3232, N^4-(dibenzo[b,d]furan-2-yl)-N^2-methyl-N^2-(3-morpholinopropyl)pyrimidine-2,4-diamine]	6.81 ± 4.5%	-2.25 ± 0.47%	96.94 ± 0.69%	93.2 ± 1.48%	–	–	–	–	–	–	6.77 ± 0.68 µM	–
c1ccc2c(c1)oc1ccc(Nc3cncc(NCCCN4CCOCC4)c3)cc12 [JX3221, N^3-(dibenzo[b,d]furan-2-yl)-N^5-(3-morpholinopropyl)pyridine-3,5-diamine]	-2.41 ± 3.2%	-4.84 ± 3.28%	96.6 ± 1.14%	90.4 ± 5.72%	–	–	–	–	–	–	21.2 ± 1.06 µM	–

More lines, main results first:

inhibition at 1 µM (Kir4.1; [3])	inhibition at 1 µM (Kir4.1; [4])	inhibition at 10 µM (Kir4.1; [5])	inhibition at 10 µM (Kir4.1; [6])	Kir4.1 Inhibition ± SD (%) at 10 μM, +50 mV (Kir4.1; +50 mV, 10 µM)	Kir4.1 Inhibition ± SD (%) at 10 μM, -120 mV (Kir4.1; -120 mV)	Kir4.1 Inhibition ± SD (%) at 1 μM, +50 mV (Kir4.1; 1 μM, +50 mV)	Kir4.1 Inhibition ± SD (%) at 1 μM, -120 mV (Kir4.1; 1 μM, -120 mV)	Kir4.1 Inhibition ± SD (%) at 10 μM, +50 mV (Kir4.1; +50 mV)	Compound	astrocytic resting membrane potential (in words) [1]	IC50 [2, 7]	IC50 ([2]; MDA-MB-468 breast cancer cells)
4.09 ± 2.08%	1.97 ± 2.44%	84.2 ± 2.69%	59.5 ± 3.66%	–	–	–	–	–	O=C(NCCCNc1nccc(Nc2ccc3oc4ccccc4c3c2)n1)N1CCOCC1 [JX3241, N-(3-((4-(dibenzo[b,d]furan-2-ylamino)pyrimidin-2-yl)amino)propyl)morpholine-4-carboxamide]	–	21.1 ± 1.53 µM	–
16.8 ± 8.93%	9.55 ± 3.62%	97.02 ± 0.67%	92 ± 1.98%	–	–	–	–	–	Cc1cnc(NCCCN2CCOCC2)nc1Nc1ccc2oc3ccccc3c2c1 [JX3216, N^4-(dibenzo[b,d]furan-2-yl)-5-methyl-N^2-(3-morpholinopropyl)pyrimidine-2,4-diamine]	–	17.9 ± 0.65 µM	–
10.8 ± 2.21%	6.83 ± 3.85%	92.4 ± 3.68%	85.4 ± 5.46%	–	–	–	–	–	c1ccc2c(c1)oc1ccc(Nc3ccnc(NCC4(CN5CCOCC5)CC4)n3)cc12 [JX3235, N^4-(dibenzo[b,d]furan-2-yl)-N^2-((1-(morpholinomethyl)cyclopropyl)methyl)pyrimidine-2,4-diamine]	–	11.3 ± 0.32 µM	–
–	–	–	–	–	64.42 ± 3.05%	9.02 ± 5.70%	7.11 ± 1.17%	88.04 ± 4.11%	c1ccc2c(c1)oc1ccc(NC34C[C@@H]5C[C@@H](CC(NCCCN6CCOCC6)(C5)C3)C4)cc12 [JX3227, (1s,3r,5R,7S)-N^1-(dibenzo[b,d]furan-2-yl)-N^3-(3-morpholinopropyl)adamantane-1,3-diamine]	–	–	> 50 µM
1.15 ± 2.32%	3.97 ± 2.03%	86.8 ± 1.76%	74.3 ± 4.51%	–	–	–	–	–	COc1cnc(NCCCN2CCOCC2)nc1Nc1ccc2oc3ccccc3c2c1 [JX3218, N^4-(dibenzo[b,d]furan-2-yl)-5-methoxy-N^2-(3-morpholinopropyl)pyrimidine-2,4-diamine]	–	13.3 ± 0.3 µM	–
